{
  "source": "patent US20190374461A1",
  "about": "“Treatment apparatus and mechanisms for an infected nail” (priority 2018, published 2019)",
  "origin": "cited, not measured here",
  "system": "nail infections",
  "note": "Where “and” joins values, the source holds several entries; their conditions need not be identical. Identical values can stand only once. Counter-ions that a name gives are not always drawn. Like-named read-outs stand apart in the source and are kept apart here.",
  "data": [
    {"compound": "C=C1CCN([C@H](C)[C@](O)(Cn2cncn2)c2ccc(F)cc2F)CC1", "note": "[efinaconazole]", "values": [
      {"measurement": "cure rates", "setting": "topical, only mild infections not involving the nail bed", "result": "17.8% and 15.2%"}
    ]},
    {"compound": "CC[C@@H]([C@H](C)O)n1ncn(-c2ccc(N3CCN(c4ccc(OC[C@@H]5CO[C@@](Cn6cncn6)(c6ccc(F)cc6F)C5)cc4)CC3)cc2)c1=O", "note": "[Posaconazole]", "values": [
      {"measurement": "side effects compared with Lamisil", "setting": "oral treatment", "result": "prone to fewer side effects than Lamisil"}
    ]},
    {"compound": "Cc1cc(C2CCCCC2)n(O)c(=O)c1", "note": "[Ciclopirox, ciclopirox]", "values": [
      {"measurement": "cure rate", "setting": "topical, 8% strength", "result": "about 8.5%"}
    ]},
    {"compound": "C[C@@H](n1cnc2cc(Cl)ccc2c1=O)[C@](O)(Cn1cncn1)c1ccc(F)cc1F", "note": "[Albaconazole]", "values": [
      {"measurement": "side effects compared with Lamisil", "setting": "in vivo, po", "result": "prone to fewer side effects than Lamisil"}
    ]},
    {"compound": "OB1OCc2cc(F)ccc21", "note": "[Tavaborole, tavaborole]", "values": [
      {"measurement": "complete cure, share of patients", "setting": "topical, 600 patients in the study", "result": 6, "unit": "%"}
    ]},
    {"compound": "CCC(C)(C)c1ccc(CC(C)CN2C[C@@H](C)O[C@@H](C)C2)cc1", "note": "(some centres unmarked) [Amorolfine, amorolfine]", "values": [
      {"measurement": "cure rates", "setting": "topical, mild nail infections without nail matrix involvement", "result": "40 to 55", "unit": "%"},
      {"measurement": "effectiveness against severe nail infections", "setting": "topical, severe nail infections involving the nail bed", "result": "not effective"}
    ]},
    {"compound": "CN(C/C=C/C#CC(C)(C)C)Cc1cccc2ccccc12", "note": "[Lamisil, terbinafine hydrochloride]", "values": [
      {"measurement": "mycological cure rate", "setting": "oral treatment of nail infections", "result": 46, "unit": "%"}
    ]}
  ]
}
